This is an account of results in patent publication US6609014B1, “Use of PDT to inhibit intimal hyperplasia” (QLT Inc., priority 1999, dated 2003).

The test system of data set [1] is intimal hyperplasia in the vein of AV fistulae between the carotid artery and the jugular vein. As to the kind of experiment: Three month efficacy study: PDT of bilateral AV fistulae, morphometric analysis. It counts as in vivo, Domestic swine. Also on record: key to PDT-treated fistula thrombosed (T): T = thrombosed. The protocol:
A porous balloon catheter was introduced into the lumen of veins to deliver either 2 mL of BPD-MA (diluted in 5% dextrose in water) or 5% dextrose in water (control), at a delivery pressure of 2 mm Hg. Two minutes later, the photosensitizer (or dextrose) was rinsed out with heparinized saline before light exposure.
The adventitia of the vein was exposed to the operating room (OR) lamp light for 40 minutes (a combination of incandescent bulbs and fluorescence tubes—approximately 1 J/cm^2).
(§1) Measurements and observations were made by morphometric analysis of cross-sections of fistulae stained with Verhoeff's elastic to assess the integrity of the vessel wall and also clearly demarcate the internal elastic lamina (IEL) for the measurement of IH. Areas within the lumen and those circumscribed by the internal elastic lamina (IEL) and the external elastic lamina (EEL) were measured directly using the Optimas (Optimas Corporation, Bothell, Wash., USA) program. The areas of the intima and the media were calculated by subtraction: intimal area equals the […], and medial area equals EEL area minus IEL area.
A three month study was conducted with bilateral end-to side AV fistulae between the carotid artery and the jugular vein created in 11 pigs. One fistula was treated with 0.15 mg/2 mL BPD-MA and 1 J/cm^2 OR lamp light delivered over 40 min; the control fistula received 5% Dextrose and light. Animals were sacrificed 3 months after PDT. The fistulae were surgically excised and processed for histology and morphometric analysis as described previously. Only 27% of the PDT treated and 45% of the control fistulae were patent by 3 months. Occlusion appeared to be due to both early thrombosis, possibly related to the surgical procedure or late thrombosis due to extensive IH and lumen narrowing.
There were three animals for which patent PDT-treated and control fistulae could be recovered. The percent of the lumen compromised by IH (% LCIH=[…]) was calculated for the first two complete blocks from the tip of the anastamosis for these samples.

The subject of data set [2] is elastic lamina of the vein. As to the kind of experiment: Elastin (Verhoeff's elastic) staining of AV fistula veins after PDT. To be noted: 48 h and 1 month samples. It counts as in vivo, Domestic swine. The protocol: as §1
Setting [3] is: 0.15 mg VERTEPORFIN/2 mL, 1 J/cm^2 OR lamp light over 40 min, three months, individual pigs.
The mark [4] stands for this setting: 0.15 mg VERTEPORFIN, three months, group mean.
The mark [5] stands for this setting: 0.15 mg VERTEPORFIN, three months, group mean (n=3).
Where [6] appears, read: 0.15 mg VERTEPORFIN, three months, individual pigs.
Where [7] appears, read: 0.15 mg VERTEPORFIN, three months, individual pigs (FIG. 9: percent medial hyperplasia).
Where [8] appears, read: 0.15 mg/2 mL BPD-MA, three months.

“And” between values parts separate entries of the source, which are not always exact repeats. Equal entries are not always repeated.

On to “benzoporphyrin derivative monoacid ring A [BPD-MA]”, for which, in data set [1] (setting [3]), the “Percent Lumen Compromised by Intimal Hyperplasia, PDT, Block #2” value is 2% and 32.3% and 41.7% and 13.7% and 46.4%; the “Percent Lumen Compromised by Intimal Hyperplasia, PDT, PDT (Block#1)” value is 3.1% and 30.2% and 17.3%. Moreover, in data set [1] (setting [4]), the “Medial Hyperplasia, PDT, Block#1, Mean” value turned out to be 21.3; the “Medial Hyperplasia, PDT, Block#2, Mean” value is on record as 14.9; the “Percent Lumen Compromised by Intimal Hyperplasia, PDT, Block #1, Mean” value is on record as 16.9%; the “Percent Lumen Compromised by Intimal Hyperplasia, PDT, Block #2, Mean” value turned out to be 26.9%. In addition, in data set [1] (setting [5]), the “Percent Lumen Compromised by Intimal Hyperplasia, Control-PDT, Block #1, Mean” value came out at 16.7% and the “Percent Lumen Compromised by Intimal Hyperplasia, Control-PDT, Block #2, Mean” value is 8.5%. Besides, in data set [1] (setting [6]), the “PDT-treated fistula thrombosed (T)” value is reported as “T”; the “Percent Lumen Compromised by Intimal Hyperplasia, Control-PDT, Block #1” value was −0.4% and 18.8% and 31.8%; the “Percent Lumen Compromised by Intimal Hyperplasia, Control-PDT, Block #2” value is 17.6% and 14.5% and −6.6%. In addition, in data set [1] (setting [7]), the “Medial Hyperplasia, PDT, Block#1” value was 8.4 and 38.1 and 17.3; the “Medial Hyperplasia, PDT, Block#2” value is 8.1 and 27.5 and 9.2. The “PDT treated fistulae patent by 3 months” value in data set [1] (0.15 mg/2 mL BPD-MA, 1 J/cm^2 OR lamp light over 40 min, 11 pigs, control 45%) amounted to 27%. In data set [1] (setting [8]), the “Relative reduction of intimal hyperplasia, block 1” value amounted to 46% and the “Relative reduction of intimal hyperplasia, block 2” value was 27%. Besides, the “PDT effect on the media of the veins” value in data set [1] (after 3 months) is reported as “little PDT effect”. The “IH in block of tissue immediately adjacent to the anastamosis” value in data set [1] (three animals with both fistulae patent, three months) is reported as “marked decrease in IH”. Further, in data set [2], the “Damage to the elastic lamina due to PDT” value is given as “no sign of damage to the elastic lamina”.
